Experimental data from paper PMC4624771, “Oriented Cell Division in the C. elegans Embryo Is Coordinated by G-Protein Signaling Dependent on the Adhesion GPCR LAT-1” (PLoS Genetics, 2015).

Key:
[1] = test system: lat-1 mutant nematodes expressing lat-1 with a lat-2 GPS; test: Peptide-mediated rescue of lethality in lat-1 mutants expressing lat-1 with a lat-2 GPS; type: in vivo, C. elegans; conditions: mothers and subsequently offspring soaked in 0.1 mM peptide, n ≥ 350
Description: Fig 4 The agonistic sequence of LAT-1 triggers receptor function in vivo. (A) Domain architecture of LAT-1 with an exchange of the GPS for the LAT-2 GPS. (B) Peptide-mediated rescue of lethality in lat-1 mutant nematodes expressing lat-1 with a lat-2 GPS. Mothers and subsequently offspring were soaked in 0.1 mM of peptide and individuals reaching adulthood were scored (n ≥ 350). […] Negative controls: mutated peptide CMP12 and a peptide derived from rat LPHN1 (RP13). Data are shown as means ± SD, **p<0.01; ***p<0.001. (C) Transgenically expressed lat-1 ^T530A/F532A::gfp exclusively rescues fertility defects of lat-1 mutants. Nematodes expressing lat-1 ^T530A/F532A::gfp in a lat-1 mutant background display lethality but no fertility defects compared to a lat-1::gfp transgenic control. (D) Expression and protein localization of lat-1::gfp (top) is indistinguishable from lat-1 ^T530A/F532A::gfp (bottom). Arrows indicate expression.
All compounds were obtained from Sigma Aldrich. Forskolin was dissolved in DMSO to 10 mM, 3-isobutyl-1-methylxanthine (IBMX) in Dent´s buffer to 10 mM, 8-bromoadenosine 3′,5′-cyclic monophosphate (8-Br-cAMP) in 1 N ammonium hydroxide to 250 mM and 2',5'-dideoxyadenosine (ddA) was diluted in DMSO to 100 mM prior to final dilution in Dent´s buffer. Peptides were synthesized (see Supporting Experimental Procedures) and dissolved in DMSO to 100 mM prior to final dilution in M9. Worms were incubated in 80 μM forskolin, 10 mM IBMX, 0.25 mM 8-Br-cAMP, 1 mM ddA or 0.1 mM peptide solution, respectively, containing E. coli OP50.
The lethality rescue assay was conducted as previously described. Fifty L4 hermaphrodites were transferred into wells of a 72-well flat-bottom Terasaki plates (Greiner Bio-One) containing OP50 and allowed to lay eggs for 24 hours at 22°C. Five to ten eggs were transferred into fresh wells with corresponding solutions and incubated at 22°C. The number of dead/surviving embryos was scored 24 hours later, the number of adult animals 48 hours later on an inverted microscope. Data were examined with an unpaired two-tailed t test for each genotype and condition.

LAT-1 = test: Peptide-stimulated cAMP accumulation assay, lat-1-transfected COS-7 cells; type: cell-based, C. elegans; conditions: 1 mM peptide; for agonistic activity at LAT-1 in vitro (cAMP levels), in words: lat-1-transfected COS-7 cells, cAMP accumulation assay
Source text: Fig 3 An agonistic sequence C-terminal of the GPS cleavage site activates LAT-1 in vitro. (A) Evolutionary conservation of the putative agonistic region C-terminal of the GPCR proteolytic site (GPS) cleavage site in different latrophilin homologs. The GPS is part of the GPCR-autoproteolysis inducing (GAIN) domain, a characteristic feature of most aGPCRs which is located N-terminal of the first transmembrane domain (TM1). Sequences were retrieved from NCBI/GenBank and aligned utilizing Jalview 2 [36]. (B, F) Peptide-stimulated cAMP response of LAT-1 (B) and rat LPHN1 (F). COS-7 cells transfected with 0.2 μg empty control vector (pcDps) or plasmid encoding the latrophilin homolog, respectively, were stimulated with 1 mM peptide and cAMP levels were measured by cAMP accumulation assay. A mutated peptide served as negative control (CMP12/RMP13). […] Basal cAMP levels (empty vector, no peptide) are 5.3 ± 1.3 nM. Data are given as means ± SD of five independent experiments, each performed in triplicate. * p < 0.05; ** p < 0.01. (C) LPHN1 is expressed in COS-7 cells. Cells were transfected with 500 ng/well of empty vector (pcDps) or plasmid encoding either rat LPHN1, human P2Y12, or human V2R. […] Expression of the human vasopressin type 2 receptor V2R is shown as a comparison. The non-specific OD value (empty vector) was 0.06 ± 0.03 (set 0%) and the OD value of P2Y12 was 1.28 ± 0.12 (set 100%). Data are given as means ± SD of at least three independent experiments. *** p < 0.001. […] To analyze functional Gi coupling, the chimeric Gαqi4 protein was applied to reroute a potential Gi-protein pathway to the […]. For each assay, 1.5 μg/well of plasmid encoding LPHN1 was transfected (for Gi-protein coupling, co-transfection with 100 ng of chimeric Gαqi4 protein was performed). No activation of any of the signaling pathway was observed. Basal IP levels are: 220 ± 34 CPM/well (empty vector); 234 ± 39 CPM/well (empty vector + Gαqi4). Data are given as means ± SD of three independent experiments, each performed in triplicate. n.s. not significant. (E) LPHN1 couples to Gαs. COS-7 cells were transfected with increasing amounts of empty control vector (pcDps) or plasmid encoding either rat LPHN1, human V2R or human P2Y12, and cAMP levels were measured after 48 hours. cAMP concentrations are shown as fold change over empty control vector, basal cAMP levels: 6.2 ± 2.3 nM (200 ng); 6.1 ± 2.5 nM (300 ng); 5.1 ± 2.6 nM (400 ng); 6.1 ± 4.5 nM (500 ng). The Gs-protein coupling V2R served as positive and the predominantly Gi-protein coupling P2Y12 as negative control. Data are given as means ± SD of three independent experiments, each performed in triplicate. *** p < 0.001.
For functional assays, COS-7 cells were transiently transfected. To determine total as well as cell surface expression of receptors carrying N-terminal HA and C-terminal FLAG tags, indirect cellular enzyme-linked immunosorbent assays (ELISA) were employed. cAMP concentrations were measured using the ALPHAScreen cAMP assay kit (PerkinElmer Life Sciences) according to the manufacturer's protocol. IP formation was determined as previously described. Assay data was analyzed with GraphPad Prism version 5.0 (GraphPad Software). Statistics were performed using a two-way ANOVA in combination with Bonferroni as post-hoc test. For details see Supporting Experimental Procedures.
COS-7 cells were grown in Dulbecco's Modified Eagle Medium (DMEM) supplemented with 10% fetal bovine serum, 100 U/ml penicillin and 100 μg/ml streptomycin at 37°C and 5% CO2 in a humidified atmosphere. […]

lat-1(ok1465) nematodes = test: Lethality rescue assay in lat-1 mutant nematodes; type: in vivo; conditions: L4 larvae and subsequently embryos incubated; forskolin 80 μM, IBMX 10 mM, 8-Br-cAMP 0.25 mM
Source text: Fig 2 Division plane defects in lat-1 mutant embryos are rescued by elevation of intracellular cAMP via a Gs protein/adenylyl cyclase pathway. […] In wild-type embryos treated with the RNAi control vector L4440 ABal divides in an anterior-posterior direction (A) whereas in treated lat-1 mutants the division plane is almost perpendicular to MS (B). gsa-1 RNAi by feeding over two generations leads to a turning of the F2 ABal division plane in a direction similar to that in lat-1 mutants (C). F2 lat-1; gsa-1(RNAi) embryos show a similar ABal division plane to lat-1 mutants (D). (E) Cell division plane angles of ABal relative to MS after knockdown of gsa-1. […] The vector L4440 served as negative control. Data are shown as means ± SD. * p < 0.05; *** p < 0.001; n ≥ 11. (F) cAMP levels are reduced in lat-1 embryos compared to a control wild-type population. cAMP levels were measured after lysis (15 μg protein) by cAMP accumulation assay. Assays were performed in three independent experiments, data are given as means ± SD. ** p < 0.01. (G) Rescue of developmental lethality in lat-1 nematodes treated with compounds promoting cAMP accumulation: forskolin (80 μM), IBMX (10 mM) and 8-Br-cAMP (0.25 mM). Mothers and subsequently offspring of wild-type and lat-1 individuals were incubated and individuals reaching adulthood were scored (n = 410). As controls, nematodes were incubated in solvent without drug (mock). Data are shown as means ± SD. * p < 0.05; ** p < 0.01; *** p < 0.001. (H) Forskolin increases cAMP levels in C. elegans embryos and adults. lat-1 mutants and subsequently embryos were incubated with 80 μM forskolin. […] As controls, nematodes were treated with 0.8% DMSO lacking forskolin (mock). Basal cAMP levels of mock control are: 0.70 ± 0.14 nM (wild-type embryos); 0.37 ± 0.19 nM (lat-1 embryos); 1.9 ± 0.7 nM (wild-type adults); 2.3 ± 0.8 nM (lat-1 adults). Assays were performed in three independent experiments, data are given as means ± SD. * p < 0.05; ** p < 0.01; *** p < 0.001. (I-L) Relative positions of ABala, ABalp, and MS in an AB^4 embryo. Schematic representation (top) and DIC microscopy (bottom), scale bars = 10 μm. In wild-type embryos (I) and embryos incubated in 80 μM forskolin for 120 minutes (K) ABal divides in an anterior-posterior direction with only ABalp forming an interface with MS. In lat-1 mutants the division plane is skewed resulting in ABala and ABalp contacting MS (J). lat-1 embryos treated with 80 μM forskolin for 120 minutes display wild-type division and cell interfaces (L). (M) Arrangement of blastomeres in the 12-cell stage embryo. […] The right-hand side is two views of the mean positions of the blastomeres. The spheres are enlarged to convey an impression of the contacts. Forskolin turns the ABal spindle in the mutant in a more anterior direction. (N) Cell division plane angles of ABal relative to MS of untreated wild-type/lat-1 controls and wild-type/lat-1 embryos after incubation of mothers and subsequently embryos for 48 hours in 80 μM forskolin. Upon forskolin treatment, mutant embryos display a wild-type division angle. As controls, nematodes were treated with 0.8% DMSO lacking forskolin (mock). Data are shown as average angles ± SD, *** p < 0.001; n ≥ 12. (O) Forskolin reduces the contact length of ABala to MS. Ratio of relative contact lengths of ABala to MS and ABalp to MS cells lat-1 embryos untreated (control, n = 10) and after incubation of mothers and subsequently embryos for 48 hours in 80 μM forskolin (n = 11). […] Data were calculated from pixel analyses utilizing DIC images and are shown as means ± SD, ** p < 0.01.
All compounds were obtained from Sigma Aldrich. Forskolin was dissolved in DMSO to 10 mM, 3-isobutyl-1-methylxanthine (IBMX) in Dent´s buffer to 10 mM, 8-bromoadenosine 3′,5′-cyclic monophosphate (8-Br-cAMP) in 1 N ammonium hydroxide to 250 mM and 2',5'-dideoxyadenosine (ddA) was diluted in DMSO to 100 mM prior to final dilution in Dent´s buffer. […]

Compound	rescue of tissue polarity phenotype / activity in vivo, in words [1]	agonistic activity at LAT-1 in vitro (cAMP levels), in words (LAT-1)	effect on embryonic lethality of lat-1 worms, in words (lat-1(ok1465) nematodes)	increase of cAMP concentration above basal levels (LAT-1; lat-1-transfected COS-7 cells (0.2 μg plasmid), ALPHAScreen cAMP assay, means of five independent experiments, each in triplicate)	rescue of lethality (individuals reaching adulthood) ([1]; means ± SD, untreated controls 26 ± 7%)
CP10: peptide comprising the LAT-1 sequence C-terminal of the GPS cleavage site (THFAVLMDVR)	not display any activity in vivo	no agonistic activity in vitro			
Nc1ncnc2c1nc(Br)n2[C@@H]1O[C@@H]2COP(=O)(O)O[C@H]2[C@H]1O [8-Br-cAMP, 8-bromoadenosine 3′,5′-cyclic monophosphate]			amelioration of embryonic lethality		
CP9: peptide comprising the LAT-1 sequence C-terminal of the GPS cleavage site (THFAVLMDV)	not display any activity in vivo	no agonistic activity in vitro			
CP12: peptide of 12 amino acids comprising the LAT-1 sequence C-terminal of the GPS cleavage site (THFAVLMDVRGH)	efficiently rescued	increased cAMP levels		1.6 fold	
CC(C)Cn1c(=O)n(C)c(=O)c2[nH]cnc21 [IBMX, 3-isobutyl-1-methylxanthine]			amelioration of embryonic lethality		
CP14: peptide comprising the LAT-1 sequence C-terminal of the GPS cleavage site (THFAVLMDVRGHDL)	not display any activity in vivo	no agonistic activity in vitro			
CP13: peptide of 13 amino acids comprising the LAT-1 sequence C-terminal of the GPS cleavage site (THFAVLMDVRGHD)	efficiently rescued	increased cAMP levels			46 ± 12%
CMP12: CP12-derived peptide with positions +1 (T530) and +3 (F532) mutated to alanine (AHAAVLMDVRGH)	not display any activity in vivo	did not display any activity			
